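96-well plates; 48 h exposure; 5 concentrations. Endpoints by linear interpolation between flanking doses. Not reached: highest tested concentration assigned. TGI: concentration producing complete growth inhibition.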
Tests used:
Test in all cases: NCI anticancer screen, dose series, 48 h
A549 NSCLC = test system: A549 NSCLC
ACHN renal = test system: ACHN renal
OVCAR-5 ovarian = test system: OVCAR-5 ovarian
COLO 205 colon = test system: COLO 205 colon
IGROV1 ovarian = test system: IGROV1 ovarian
SNB-19 CNS = test system: SNB-19 CNS
TK-10 renal = test system: TK-10 renal
CCRF-CEM leukemia = test system: CCRF-CEM leukemia
PC-3 prostate = test system: PC-3 prostate
U251 CNS = test system: U251 CNS
HCT-116 colon = test system: HCT-116 colon
A498 renal = test system: A498 renal
OVCAR-8 ovarian = test system: OVCAR-8 ovarian
HCT-15 colon = test system: HCT-15 colon
T-47D breast = test system: T-47D breast
MCF7 breast = test system: MCF7 breast
SNB-75 CNS = test system: SNB-75 CNS
786-0 renal = test system: 786-0 renal
M14 melanoma = test system: M14 melanoma
OVCAR-3 ovarian = test system: OVCAR-3 ovarian
EKVX NSCLC = test system: EKVX NSCLC
HCC-2998 colon = test system: HCC-2998 colon
UACC-257 melanoma = test system: UACC-257 melanoma
SF-268 CNS = test system: SF-268 CNS
UO-31 renal = test system: UO-31 renal
HS 578T breast = test system: HS 578T breast
MDA-N = test system: MDA-N
NCI/ADR-RES ovarian = test system: NCI/ADR-RES ovarian
LOX IMVI melanoma = test system: LOX IMVI melanoma
MDA-MB-231 breast = test system: MDA-MB-231 breast
NCI-H226 lung = test system: NCI-H226 lung
NCI-H23 lung = test system: NCI-H23 lung
SK-MEL-5 melanoma = test system: SK-MEL-5 melanoma
MOLT-4 leukemia = test system: MOLT-4 leukemia
SN12C renal = test system: SN12C renal
SK-MEL-2 melanoma = test system: SK-MEL-2 melanoma
DU-145 prostate = test system: DU-145 prostate
RPMI-8226 leukemia = test system: RPMI-8226 leukemia
UACC-62 melanoma = test system: UACC-62 melanoma
NCI-H522 lung = test system: NCI-H522 lung
SW-620 colon = test system: SW-620 colon
K-562 leukemia = test system: K-562 leukemia
HL-60(TB) leukemia = test system: HL-60(TB) leukemia
SF-295 CNS = test system: SF-295 CNS
BT-549 breast = test system: BT-549 breast
HOP-62 NSCLC = test system: HOP-62 NSCLC
KM12 colon = test system: KM12 colon
SF-539 CNS = test system: SF-539 CNS
HOP-92 NSCLC = test system: HOP-92 NSCLC
MDA-MB-435 = test system: MDA-MB-435
SR leukemia = test system: SR leukemia
HT29 colon = test system: HT29 colon
RXF 393 renal = test system: RXF 393 renal

Measured: TGI

O=C(O)CCC(NC(=O)c1ccc(Nc2nc3ccc(C(F)(F)F)cc3nc2C(=O)O)cc1)C(=O)O (stereo not drawn)
> 100 µM: all assays above
